“And” between values parts separate entries of the source, which are not always exact repeats. Equal entries are not always repeated.
What was measured:
[1] = test system: polymorphonuclear leukocytes (PMNs); assay: PMN (neutrophil) chemotaxis, Transwell migration, CellTiter Glo readout; format: cell-based, human; conditions: 10 uM compound in receiver wells; 1 h migration, 37 °C; PMNs from buffy coats of healthy volunteers
Protocol: AnxA1 N-terminal fragments were assessed in polymorphonuclear leukocytes (PMNs) isolated from buffy coats of healthy volunteers. PMNs were resuspended in migration medium (RPMI1640 (ATCC, Cat. No. 30-2001)+0.05% BSA-FAF) to a concentration of 5.5×10^6 cells/mL.
Receiver wells of a Transwell plate were filled with 200 μL of migration medium with 10 uM of compound 1, 2 or 3. Donor plate was inserted and 75 μL of cell suspension was added to upper wells ([…]). Plates were incubated for 1 h (37° C., 5% CO2, 95% humidity). The number of migrated cells was assessed by removing Transwell insert with cells from the plate in order to stop migration, followed by addition of 200 μL CellTiter Glo reagent to lower wells. Plates were incubated for 10 minutes in the dark (at room temperature), and 200 μL was transferred to white 96 well plates (Lumitrac 200). Luminescence was measured by use of EnVision 2104 (Perkin Elmer) (exposition time 0.1 s)
The chemotaxis response was estimated by calculating fold change compared to negative control (vehicle).

[2] = test system: monocytes; assay: Whole blood monocyte phagocytosis assay (pHrodo E. coli BioParticles, flow cytometry); format: cell-based; conditions: human whole blood, 1 h incubation, then pHrodo E. coli BioParticles 30 min, mean of four experiments
Protocol: AnxA1 N-terminal fragments were assessed in whole blood phagocytosis assay. Whole blood from human subjects (45 μL) was incubated for 1 h with control peptide Anxa1 2-50 (100 nM) and test peptides Compound 1 (100 nM), Compound 2 (100 nM) and Compound 3 (30 nM), or vehicle in a 96-well plate. 50 μl pHrodo E. coli BioParticles Conjugate (5 μg/well) was added to the wells, and the plate was incubated at 37° C., 5% CO2 for 30 min. 150 μl of 4% PFA was added, and the plate incubated at 4° C. for 30 min. 30 μL from each well of the 96-well plate was transferred into flow cytometry tubes with 500 μL RPMI 1640 and 1 μL of Vybrant DyeCycle dye. Tubes were incubated for 30 min at 37° C. and 5% CO2, followed by addition of 2.5 mL of RPMI 1640 Medium in each tube.
Samples were acquired on the Attune NxT Flow Cytometer. Monocyte phagocytosis was determined as an increase in pHrodo Green fluorescence relative to control sample.

| Sequence | Fold increase relative to vehicle (PMN chemotaxis) [1] | Fold increase relative to vehicle (monocyte phagocytosis) ([2]; peptide 100 nM) [fold] | Fold increase relative to vehicle (monocyte phagocytosis) ([2]; peptide 30 nM) [fold] | Fold increase relative to vehicle (monocyte phagocytosis) ([2]; peptide 100 nM, listed as AnxA1 2-50) [fold] |
| --- | --- | --- | --- | --- |
| AMVSEFLKQAWFIENEEQEYVQTLKSSK (Val24Leu variant of AnxA1 fragment; MISC_FEATURE - Val24Leu variant of AnxA1 fragment) [Compound 1] | 3 fold and 3.1 fold | 2.6 | – | – |
| AMVSEFLKQAWFIENEEQEYVQTLKSSKGGPGS (Val24Leu variant of AnxA1 fragment; MISC_FEATURE - Val24Leu variant of AnxA1 fragment) [Compound 2] | 2 fold and 2.0 fold | 2.8 | – | – |
| AMVSEFLKQAWFIENEEQEYVQTLKSSKGGPGSAVSPY (Val24Leu variant of AnxA1 fragment; MISC_FEATURE - Val24Leu variant of AnxA1 fragment) [Compound 3] | 1.6 fold | – | 2.9 | – |
| AMVSEFLKQAWFIENEEQEYVQTVKSSKGGPGSAVSPYPTFNPSSDVAA (Synthetic sequence having some homology with human annexin 1) [Anxa1 2-50, reference compound] | – | 1.9 | – | ~2 |

Reference: patent publication US20250388632A1, “ANNEXIN A1-DERIVED POLYPEPTIDE ANALOGUES” (RESOTHER PHARMA A/S, priority 2022, published 2025)
